Where “and” joins values, the source holds several entries; their conditions need not be identical. Identical values can stand only once.
Test system: C57BL/6J-Apc^Min mice
Assay: Chemopreventive activity in Apc^Min mouse model (intestinal tumor number)
Details: for Tumor # ±S.D.: avg. age 118 days
Procedure: In both studies,—Carbendazim was administered orally at 1000 mg/kg, 1500 mg/kg, and 2000 mg/kg on a twice weekly to end schedule. In order to provide a positive control for the Apc^Min mouse study, Sulindac was administered ad libitum in the drinking water at 85 mg/l. Gemcitabine at 80 mg/kg, i.p., served as the positive control in the MiaPaCa study.
Female C57BL/6J-Apc^Min mice were obtained from The Jackson Laboratory at 4-5 weeks of age. The following day (Day 1), drug treatment begins. The Min (Multiple intestinal neoplasia) mouse is a strain with a mutated murine Apc (adenomatous polyposis coli) gene, which leads to the development of multiple intestinal polyps. This development is time and diet dependent, with 100% of the mice which ingest a high fat diet forming adenomas beginning around 45 days of age. These mice develop in excess of 30 adenomas throughout the intestinal tract during their 120 day life span and are therefore an ideal model for the evaluation of potential chemopreventive agents.
The mean survival times of all groups were calculated, and results are expressed as mean survival of treated mice/mean survival of control mice (T/C)×100%. A T/C value of 150 means that the mice in the treated group lived 50% longer than those of the control group; this is sometimes referred to as the increase in life span, or ILS value.
Statistics were performned on the data using primarily the log rank p-value test.

COC(=O)Nc1nc2ccccc2[nH]1 [Carbendazim, 2-methoxycarbonylamino-benzimidazole]
Tumor # ±S.D. (1000 mg/kg p.o. 2× weekly to end, control 31.70 ± 18.49, 1000 mg/kg): 24.7 and 24.71 ± 7.8
# of non-specific Death (1000 mg/kg p.o. 2× weekly to end, n 10): 3
# of non-specific Death (1500 mg/kg p.o. 2× weekly to end, n 10): 2
Tumor # ±S.D. (2000 mg/kg p.o. 2× weekly to end, control 31.70 ± 18.49, 2000 mg/kg): 19.1 and 19.17 ± 7.36
# of non-specific Death (2000 mg/kg p.o. 2× weekly to end, n 9): 3

CC1=C(CC(=O)O)c2cc(F)ccc2/C1=C\c1ccc([S+](C)[O-])cc1 (stereo not drawn) [Sulindac, reference compound]
# of non-specific Death (0.85 mg/kg p.o. ad libitum/H20, n 9): 0
